According to patent publication US12398154B2, “Azaquinazoline pan-KRas inhibitors” (Mirati Therapeutics, Inc., priority 2020, dated 2025):

Columns and labels:
[1] = target: KRas G12D (Homo sapiens, UniProt P01116, G12D); assay: biochemical;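 also: TR-FRET displacement binding assay on KRas, read after a one-hour incubation at room temperature, IC50 fitted from percent-of-control values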
Protocol: (§1) The ability of a compound to bind to KRas was measured using a TR-FRET displacement assay. […] After a 60-minute incubation at room temperature, the reaction was measured using a BMG LABTECH CLARIO star Plus via TR-FRET. […] The POC values were fit to a 4-parameter IC50 equation and the IC50 value reported.

[2] = target: KRas G12V (Homo sapiens, UniProt P01116, G12V); assay: biochemical;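 also: KRas binding measured by TR-FRET displacement at room temperature, IC50 fitted from percent of control values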
Protocol: as §1

[3] = target: KRas G12R (Homo sapiens, UniProt P01116, G12R); assay: biochemical;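 also: TR-FRET displacement assay of compound binding to KRas, read after one hour at room temperature, potency from a four-parameter fit of percent-of-control values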
Protocol: as §1

[4] = test system: pERK in MKN1 cells; assay: Inhibition of KRas phosphorylation of ERK (Cisbio HTRF pERK assay); settings: Homo sapiens, MKN-1, 3 h, read-out: Inhibition (HTRF IC50) of KRas-mediated Phosphorylation of ERK, MKN1
[5] = test system: pERK in PSN1 cells; assay: as above; settings: Homo sapiens, PSN1, 3 h, read-out: Inhibition (HTRF IC50) of KRas-mediated Phosphorylation of ERK, PSN1
[6] = test system: pERK in ASPC1 cells; assay: as above; settings: Homo sapiens, ASPC1, read-out: Inhibition (HTRF IC50) of KRas-mediated Phosphorylation of ERK, AsPC-1
[7] = target: KRas G12A (Homo sapiens, UniProt P01116, G12A); assay: biochemical;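 also: binding to KRas measured by TR-FRET displacement after one hour at room temperature, IC50 from a four-parameter fit of percent-of-control values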
Protocol: as §1

[8] = target: KRas G12S (Homo sapiens, UniProt P01116, G12S); assay: biochemical;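 also: TR-FRET displacement binding to KRas, read after one hour incubation at room temperature, IC50 from four-parameter fit of percent of control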
Protocol: as §1

[9] = target: KRas G12C (Homo sapiens, UniProt P01116, G12C); assay: biochemical;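 also: binding to KRas assessed by TR-FRET displacement after one hour incubation at room temperature, potency fitted from percent-of-control values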
Protocol: as §1

[10] = target: KRas WT (Homo sapiens, UniProt P01116); assay: biochemical;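 also: binding to KRas read as TR-FRET displacement after a one-hour room-temperature incubation, IC50 derived from percent-of-control values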
Sequence of KRas WT (P01116 1-169 isoform P01116-2): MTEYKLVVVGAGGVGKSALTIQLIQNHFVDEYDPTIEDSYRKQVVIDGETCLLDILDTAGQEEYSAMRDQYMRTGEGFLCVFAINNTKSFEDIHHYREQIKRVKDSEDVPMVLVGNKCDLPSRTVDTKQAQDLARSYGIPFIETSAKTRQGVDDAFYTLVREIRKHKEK
Protocol: as §1

Sequence of KRas G12R (P01116 1-169 isoform P01116-2 G12R): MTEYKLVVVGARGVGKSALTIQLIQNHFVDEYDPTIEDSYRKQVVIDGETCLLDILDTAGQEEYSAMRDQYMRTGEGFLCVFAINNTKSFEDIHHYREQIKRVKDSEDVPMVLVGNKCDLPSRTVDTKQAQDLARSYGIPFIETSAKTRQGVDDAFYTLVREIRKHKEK
Sequence of KRas G12V (P01116 1-169 isoform P01116-2 G12V): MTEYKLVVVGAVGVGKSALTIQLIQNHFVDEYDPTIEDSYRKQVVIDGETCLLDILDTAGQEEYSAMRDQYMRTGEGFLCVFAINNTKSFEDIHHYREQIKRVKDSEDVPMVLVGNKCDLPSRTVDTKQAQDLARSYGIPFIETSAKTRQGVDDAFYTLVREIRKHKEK
Sequence of KRas G12D (P01116 1-169 isoform P01116-2 G12D): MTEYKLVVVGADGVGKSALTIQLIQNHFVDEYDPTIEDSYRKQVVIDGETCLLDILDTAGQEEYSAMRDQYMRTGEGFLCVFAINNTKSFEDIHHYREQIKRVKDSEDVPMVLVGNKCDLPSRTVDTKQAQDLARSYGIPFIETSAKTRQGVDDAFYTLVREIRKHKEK
Sequence of KRas G12C (P01116 1-169 isoform P01116-2 G12C): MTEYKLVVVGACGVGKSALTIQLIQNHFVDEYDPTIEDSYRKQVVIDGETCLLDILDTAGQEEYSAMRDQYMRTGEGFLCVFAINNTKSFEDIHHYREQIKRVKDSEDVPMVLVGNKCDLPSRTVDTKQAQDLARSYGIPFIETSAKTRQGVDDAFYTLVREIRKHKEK
Sequence of KRas G12S (P01116 1-169 isoform P01116-2 G12S): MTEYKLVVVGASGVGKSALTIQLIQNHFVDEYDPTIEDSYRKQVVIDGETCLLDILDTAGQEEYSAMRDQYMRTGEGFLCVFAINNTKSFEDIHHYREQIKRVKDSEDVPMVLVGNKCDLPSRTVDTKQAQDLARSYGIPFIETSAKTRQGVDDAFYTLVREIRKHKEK
Sequence of KRas G12A (P01116 1-169 isoform P01116-2 G12A): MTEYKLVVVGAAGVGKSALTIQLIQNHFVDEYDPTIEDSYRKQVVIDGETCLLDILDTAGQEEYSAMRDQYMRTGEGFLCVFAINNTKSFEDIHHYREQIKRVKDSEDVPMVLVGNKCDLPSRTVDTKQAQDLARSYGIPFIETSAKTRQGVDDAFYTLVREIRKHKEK

SMILES: CCc1c(F)ccc2cc(O)cc(-c3ncc4c(NC[C@H]5COC[C@H]5O)nc(OC[C@@]56CCCN5C[C@H](F)C6)nc4c3F)c12 (single isomer, unassigned) [Example 492]
- IC50 [1]: 84 nM
- IC50 [2]: 15 nM
- IC50 [3]: 14 nM
- IC50 [4]: 254 nM
- IC50 [5]: ≥ 10000 nM
- IC50 [6]: 3520 nM

SMILES: CCc1c(F)ccc2cc(O)cc(-c3ncc4c(NC[C@@H]5COC[C@@H]5O)nc(OC[C@@]56CCCN5C[C@H](F)C6)nc4c3F)c12 (single isomer, unassigned) [Example 493]
- IC50 [1]: 130 nM
- IC50 [2]: 11 nM
- IC50 [3]: 9 nM
- IC50 [4]: 622 nM
- IC50 [5]: ≥ 10000 nM
- IC50 [6]: ≥ 10000 nM

SMILES: CCc1c(F)ccc2cc(O)cc(-c3ncc4c(N5C[C@@H]6C(CO)NC(=O)[C@@H]6C5)nc(OC[C@@]56CCCN5C[C@H](F)C6)nc4c3F)c12 (stereo in doubt) [Example 488, (3R,3aR,6aS)-5-(7-(8-ethyl-7-fluoro-3-hydroxynaphthalen-1-yl)-8-fluoro-2-(((2R,7aS)-2-fluorotetrahydro-1H-pyrrolizin-7a(5H)-yl)methoxy)pyrido[4,3-d]pyrimidin-4-yl)-3-(hydroxymethyl)hexahydropyrrolo[3,4-c]pyrrol-1(2H)-one]
- IC50 [1]: 22 nM
- IC50 [2]: 27 nM
- IC50 [3]: 51 nM
- IC50 [4]: ≥ 10000 nM
- IC50 [5]: ≥ 10000 nM
- IC50 [6]: ≥ 10000 nM

SMILES: CCc1c(F)ccc2cc(O)cc(-c3ncc4c(N5CCC[C@](C)(O)C5)nc(OC[C@@]56CCCN5C[C@H](F)C6)nc4c3F)c12 [Example 4]
- IC50 [5]: ≥ 10000 nM

SMILES: O=C1CC2(CCCN(c3nc(OCC45CCCN4CCC5)nc4c(F)c(-c5cccc6cccc(F)c56)ncc34)C2)CN1 (centres unmarked) [Example 20, 7-(8-fluoro-7-(8-fluoronaphthalen-1-yl)-2-((hexahydro-1H-pyrrolizin-7a-yl)methoxy)pyrido[4,3-d]pyrimidin-4-yl)-2,7-diazaspiro[4.5]decan-3-one]
- IC50 [1]: 2390 nM
- IC50 [2]: 3400 nM
- IC50 [3]: 7390 nM
- IC50 [7]: 2780 nM
- IC50 [8]: 2980 nM
- IC50 [9]: 3180 nM
- IC50 [10]: 2970 nM

SMILES: Fc1c(-c2cccc3cccc(F)c23)ncc2c(Nc3cnc4cnccn34)nc(OCC34CCCN3CCC4)nc12 [Example 34, 8-fluoro-7-(8-fluoronaphthalen-1-yl)-N-(imidazo[1,2-a]pyrazin-3-yl)-2-((tetrahydro-1H-pyrrolizin-7a(5H)-yl)methoxy)pyrido[4,3-d]pyrimidin-4-amine]
- IC50 [1]: 11100 nM
- IC50 [2]: 15000 nM
- IC50 [3]: ≥ 100000 nM
- IC50 [7]: 48700 nM
- IC50 [8]: 53500 nM
- IC50 [9]: 35000 nM
- IC50 [10]: 28100 nM

SMILES: CNc1cc2n(n1)CCCN(c1nc(OCC34CCCN3CCC4)nc3c(F)c(-c4cccc5cccc(F)c45)ncc13)C2 [Example 263, 5-(8-fluoro-7-(8-fluoronaphthalen-1-yl)-2-((tetrahydro-1H-pyrrolizin-7a(5H)-yl)methoxy)pyrido[4,3-d]pyrimidin-4-yl)-N-methyl-5,6,7,8-tetrahydro-4H-pyrazolo[1,5-a][1,4]diazepin-2-amine]
- IC50 [1]: 1980 nM
- IC50 [2]: 4030 nM
- IC50 [3]: 3040 nM
- IC50 [7]: 4940 nM
- IC50 [8]: 3550 nM
- IC50 [9]: 4410 nM
- IC50 [10]: 9090 nM

SMILES: O=C1CC2(CCCN(c3nc(OCC45CCCN4CCC5)nc4c(F)c(-c5cccc6cccc(F)c56)ncc34)C2)C(=O)N1 (centres unmarked) [Example 265, 7-(8-fluoro-7-(8-fluoronaphthalen-1-yl)-2-((hexahydro-1H-pyrrolizin-7a-yl)methoxy)pyrido[4,3-d]pyrimidin-4-yl)-2,7-diazaspiro[4.5]decane-1,3-dione]
- IC50 [1]: 5310 nM
- IC50 [2]: 2740 nM
- IC50 [3]: 1920 nM
- IC50 [7]: 3020 nM
- IC50 [8]: 2510 nM
- IC50 [9]: 3310 nM
- IC50 [10]: 2460 nM

SMILES: O=C1NC(=O)C2(CCCCN(c3nc(OCC45CCCN4CCC5)nc4c(F)c(-c5cccc6cccc(F)c56)ncc34)C2)N1 (centres unmarked) [Example 267, 7-(8-fluoro-7-(8-fluoronaphthalen-1-yl)-2-((hexahydro-1H-pyrrolizin-7a-yl)methoxy)pyrido[4,3-d]pyrimidin-4-yl)-1,3,7-triazaspiro[4.6]undecane-2,4-dione]
- IC50 [1]: 4370 nM
- IC50 [2]: 1710 nM
- IC50 [3]: 1720 nM
- IC50 [7]: 2500 nM
- IC50 [8]: 2070 nM
- IC50 [9]: 2250 nM
- IC50 [10]: 1560 nM

SMILES: OCC1CN(c2nc(OCC34CCCN3CCC4)nc3c(F)c(-c4cccc5cccc(F)c45)ncc23)CCCO1 (centres unmarked) [Example 269, (4-(8-fluoro-7-(8-fluoronaphthalen-1-yl)-2-((hexahydro-1H-pyrrolizin-7a-yl)methoxy)pyrido[4,3-d]pyrimidin-4-yl)-1,4-oxazepan-2-yl)methanol]
- IC50 [1]: 1910 nM
- IC50 [2]: 1000 nM
- IC50 [3]: 1060 nM
- IC50 [7]: 1050 nM
- IC50 [8]: 725 nM
- IC50 [9]: 608 nM
- IC50 [10]: 1060 nM

SMILES: NC(=O)C1COCCN(c2nc(OCC34CCCN3CCC4)nc3c(F)c(-c4cccc5cccc(F)c45)ncc23)C1 (centres unmarked) [Example 270, 4-(8-fluoro-7-(8-fluoronaphthalen-1-yl)-2-((hexahydro-1H-pyrrolizin-7a-yl)methoxy)pyrido[4,3-d]pyrimidin-4-yl)-1,4-oxazepane-6-carboxamide]
- IC50 [1]: 2630 nM
- IC50 [2]: 2100 nM
- IC50 [3]: 7590 nM
- IC50 [9]: 2830 nM
- IC50 [10]: 4190 nM

SMILES: O=C1NC(=O)C2(COCCN(c3nc(OCC45CCCN4CCC5)nc4c(F)c(-c5cccc6cccc(F)c56)ncc34)C2)N1 (centres unmarked) [Example 272, 10-(8-fluoro-7-(8-fluoronaphthalen-1-yl)-2-((hexahydro-1H-pyrrolizin-7a-yl)methoxy)pyrido[4,3-d]pyrimidin-4-yl)-7-oxa-1,3,10-triazaspiro[4.6]undecane-2,4-dione]
- IC50 [1]: 194 nM
- IC50 [2]: 130 nM
- IC50 [3]: 120 nM
- IC50 [7]: 138 nM
- IC50 [8]: 132 nM
- IC50 [9]: 141 nM
- IC50 [10]: 116 nM

SMILES: O=C1C[C@@]2(CCN(c3nc(OCC45CCCN4CCC5)nc4c(F)c(-c5cccc6cccc(F)c56)ncc34)C2)CN1 [Example 280, (S)-7-(8-fluoro-7-(8-fluoronaphthalen-1-yl)-2-((hexahydro-1H-pyrrolizin-7a-yl)methoxy)pyrido[4,3-d]pyrimidin-4-yl)-2,7-diazaspiro[4.4]nonan-3-one]
- IC50 [1]: ≥ 100000 nM
- IC50 [2]: ≥ 100000 nM
- IC50 [3]: ≥ 100000 nM
- IC50 [7]: ≥ 100000 nM
- IC50 [8]: ≥ 100000 nM
- IC50 [9]: 9860 nM
- IC50 [10]: ≥ 100000 nM

SMILES: NS(=O)(=O)CC1CCCN(c2nc(OCC34CCCN3CCC4)nc3c(F)c(-c4cccc5cccc(Cl)c45)ncc23)C1 (centres unmarked) [Example 281, 1-(1-(7-(8-chloronaphthalen-1-yl)-8-fluoro-2-((tetrahydro-1H-pyrrolizin-7a(5H)-yl)methoxy)pyrido[4,3-d]pyrimidin-4-yl)piperidin-3-yl)methanesulfonamide]
- IC50 [1]: 213 nM
- IC50 [2]: 170 nM
- IC50 [3]: 81 nM
- IC50 [7]: 59 nM
- IC50 [8]: 67 nM
- IC50 [9]: 75 nM
- IC50 [10]: 61 nM

SMILES: O=C1NC(=O)C2(CCCN(c3nc(OCC45CCCN4CCC5)nc4c(F)c(-c5cccc6cccc(Cl)c56)ncc34)C2)N1 (centres unmarked) [Example 282, 7-(7-(8-chloronaphthalen-1-yl)-8-fluoro-2-((hexahydro-1H-pyrrolizin-7a-yl)methoxy)pyrido[4,3-d]pyrimidin-4-yl)-1,3,7-triazaspiro[4.5]decane-2,4-dione]
- IC50 [1]: 30 nM
- IC50 [2]: 15 nM
- IC50 [3]: 18 nM
- IC50 [7]: 16 nM
- IC50 [8]: 15 nM
- IC50 [9]: 16 nM
- IC50 [10]: 15 nM

SMILES: O=C1CC2(CCCN(c3nc(OCC45CCCN4CCC5)nc4c(F)c(-c5cccc6cccc(Cl)c56)ncc34)C2)N1 (centres unmarked) [Example 283, 6-(7-(8-chloronaphthalen-1-yl)-8-fluoro-2-((tetrahydro-1H-pyrrolizin-7a(5H)-yl)methoxy)pyrido[4,3-d]pyrimidin-4-yl)-1,6-diazaspiro[3.5]nonan-2-one]
- IC50 [1]: 97 nM
- IC50 [2]: 90 nM
- IC50 [3]: 129 nM
- IC50 [7]: 97 nM
- IC50 [8]: 91 nM
- IC50 [9]: 77 nM
- IC50 [10]: 113 nM

SMILES: O=C1NCC2(CCCN(c3nc(OCC45CCCN4CCC5)nc4c(F)c(-c5cccc6cccc(Cl)c56)ncc34)C2)N1 (centres unmarked) [Example 284, 7-(7-(8-chloronaphthalen-1-yl)-8-fluoro-2-((hexahydro-1H-pyrrolizin-7a-yl)methoxy)pyrido[4,3-d]pyrimidin-4-yl)-1,3,7-triazaspiro[4.5]decan-2-one]
- IC50 [1]: 38 nM
- IC50 [2]: 41 nM
- IC50 [3]: 58 nM
- IC50 [7]: 46 nM
- IC50 [8]: 45 nM
- IC50 [9]: 44 nM
- IC50 [10]: 46 nM

SMILES: CCc1c(F)ccc2cc(O)cc(-c3ncc4c(NCCN5CCNC5=O)nc(OC[C@@]56CCCN5C[C@H](F)C6)nc4c3F)c12 [Example 372, 1-(2-((7-(8-ethyl-7-fluoro-3-hydroxynaphthalen-1-yl)-8-fluoro-2-(((2R,7aS)-2-fluorotetrahydro-1H-pyrrolizin-7a(5H)-yl)methoxy)pyrido[4,3-d]pyrimidin-4-yl)amino)ethyl)imidazolidin-2-one]
- IC50 [1]: 56 nM
- IC50 [2]: 5 nM
- IC50 [3]: 13 nM
- IC50 [4]: 660 nM
- IC50 [5]: ≥ 10000 nM
